Assay results taken from US6489320B1, “5, 5-disubstituted-1, 5-dihydro-4, 1-benzoxazepin-2 (3H)-ones useful as HIV reverse transcriptase inhibitors” (Bristol-Myers Squibb Pharma Company, priority 1997, dated 2002).

Compound `O=C1Nc2ccc(F)c(F)c2[C@@](C#CC2CC2)(C(F)(F)F)O[C@H]1C1CC1` (relative stereo) [Example 46, rel-(3S,5S)-6,7-Difluoro-5-(2-cyclopropylethynyl)-1,5-dihydro-3-cyclopropyl-5-(trifluoromethyl)-4,1-benzoxazepin-2(3H)-one] has a melting point of 222 to 222.5 °C. `CC[C@@H]1O[C@](/C=C/C2CC2)(C(F)(F)F)c2cc(F)ccc2NC1=O` (relative stereo) [Example 51, rel-(3S,5S)-trans-7-Fluoro-5-(2-cyclopropylethenyl)-1,5-dihydro-3-ethyl-5-(trifluoromethyl)-4,1-benzoxazepin-2(3H)-one] gave a melting point of 148 to 149 °C. Compound `C[C@@H]1O[C@](C#CC2CC2)(C(F)(F)F)c2cc(Cl)ccc2NC1=O` [Example 36, (+)-(3S,5S)-7-Chloro-5-cyclopropylethynyl-1,5-dihydro-3-methyl-5-(trifluoromethyl)-4,1-benzoxazepin-2(3H)-one] has a melting point of 145 to 146 °C. `O=C1COC(C#CC2CC2)(C(F)(F)F)c2cc(Cl)ccc2N1` (stereo not shown) [Example 18, 7-Chloro-5-cyclopropylethynyl-1,5-dihydro-5-(trifluoromethyl)-4,1-benzoxazepin-2(3H)-one] gave a melting point of 199.5 to 200.5 °C. In the case of `C[C@@H]1O[C@](/C=C/C2CC2)(C(F)(F)F)c2cc(Cl)ccc2NC1=O` [Example 39, (+)-(3S,5S)-trans-7-Chloro-5-(2-cyclopropylethenyl)-1,5-dihydro-3-methyl-5-(trifluoromethyl)-4,1-benzoxazepin-2(3H)-one], the melting point is reported as 175 to 175.5 °C. Compound `CC[C@@H]1O[C@](/C=C/C2CC2)(C(F)(F)F)c2c(ccc3c2OCO3)NC1=O` (relative stereo) [Example 55, rel-(3S,5S)-trans-6,7-Methylenedioxy-5-(2-cyclopropylethenyl)-1,5-dihydro-3-ethyl-5-(trifluoromethyl)-4,1-benzoxazepin-2(3H)-one] has a melting point of 188 to 190 °C. `CC(C)C#C[C@]1(C(F)(F)F)OCC(=O)Nc2ccc(Cl)cc21` (single isomer, unassigned) [Example 4] gave a melting point of 135 to 136 °C. For `CCC#CC1(C(F)(F)F)OC(c2ccccc2)C(=O)Nc2ccc(Cl)cc21` [Example 2, rel-(3S,5S)-5-(1-Butynyl)-7-chloro-1,5-dihydro-3-phenyl-5-(trifluormethyl)-4,1-benzoxazepin-2(3H)-one], the melting point was 198 to 199 °C. In the case of `COc1ccc2c(c1)C(CCC(C)C)(C(F)(F)F)OCC(=O)N2` (stereo not shown) [Example 21, 7-Methoxy-5-(3-methylbutyl)-1,5-dihydro-5-(trifluoromethyl)-4,1-benzoxazepin-2(3H)-one], the melting point is reported as 129 to 130 °C. `C[C@@H]1O[C@](/C=C/c2ccco2)(C(F)(F)F)c2cc(Cl)ccc2NC1=O` (relative stereo) [Example 9, rel-(3S,5S)-trans-7-Chloro-1,5-dihydro-5-(2-furan-2-ylethenyl)-3-methyl-5-(trifluoromethyl)-4,1-benzoxazepin-2(3H)-one] showed a melting point of 205 to 206.5 °C. Compound `CC(C)/C=C/C1(C(F)(F)F)OCC(=O)Nc2ccc(Cl)cc21` (stereo not drawn) [Example 20, trans-7-Chloro-5-(2-isopropylethenyl)-1,5-dihydro-5-(trifluoromethyl)-4,1-benzoxazepin-2(3H)-one] has a melting point of 148 to 149 °C. `C[C@@H]1O[C@](/C=C/C2CC2)(C(F)(F)F)c2cc(F)ccc2NC1=O` (relative stereo) [Example 50, rel-(3S,5S)-trans-7-Fluoro-5-(2-cyclopropylethenyl)-1,5-dihydro-3-methyl-5-(trifluoromethyl)-4,1-benzoxazepin-2(3H)-one] gave a melting point of 180 to 182 °C. In the case of `CC(C)[C@@H]1O[C@](C#CC2CC2)(C(F)(F)F)c2cc(Cl)ccc2NC1=O` (relative stereo) [Example 15, rel-(3S,5S)-7-Chloro-5-cyclopropylethynyl-1,5-dihydro-3-isopropyl-5-(trifluoromethyl)-4,1-benzoxazepin-2(3H)-one], the melting point is reported as 167 °C.
